# Assay results as given in patent EP0028117A1, “Guanidine compounds, process for preparing them and compositions containing them” (SMITH KLINE & FRENCH LABORATORIES LIMITED, priority 1979, dated 1981).
# Experiments:
# histamine H2-receptors [1] = experiment: Inhibition of histamine-stimulated gastric acid secretion from lumen-perfused stomachs of anaesthetised rats; format: in vivo; conditions: i.v., lumen-perfused stomachs of rats anaesthetised with urethane
# histamine H2-receptors [2] = target: T1, histamine H2-receptors (Cavia porcellus, UniProt P47747); experiment: Inhibition of histamine-induced tachycardia in the isolated guinea pig atrium; conditions: read-out: effective dose producing 50% inhibition of the histamine-induced tachycardia
# T1 construct: histamine-induced tachycardia in the isolated guinea pig atrium; from tissue; host or cells: isolated guinea pig atrium
# T1 sequence (P47747 whole entry): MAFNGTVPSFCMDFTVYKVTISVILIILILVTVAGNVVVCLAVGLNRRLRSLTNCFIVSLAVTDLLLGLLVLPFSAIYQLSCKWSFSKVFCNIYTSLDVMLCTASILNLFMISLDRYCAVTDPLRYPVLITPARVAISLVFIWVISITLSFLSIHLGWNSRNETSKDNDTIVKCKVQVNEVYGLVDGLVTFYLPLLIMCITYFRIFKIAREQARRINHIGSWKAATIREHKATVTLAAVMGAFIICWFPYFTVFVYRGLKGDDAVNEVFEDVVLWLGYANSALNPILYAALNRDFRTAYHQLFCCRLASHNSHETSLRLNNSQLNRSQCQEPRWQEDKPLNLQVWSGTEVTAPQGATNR
# From the text: This procedure is referred to in Ash and Schild, Brit. J. Pharmac. Chemother., 1966. 27. […] For example, they inhibit the actions of histamine on the isolated guinea pig atrium.
smiles,measurement,setting,value
"N=C(N)Nc1nc(CSCCNc2[nH]ccc2[N+](=O)[O-])cs1 [Example 1, 2-[2-(2-Guanidino-4-thiazolylmethylthio)ethylamin]-3-nitropyrrole]",doses causing 50% inhibition of maximal acid secretion,histamine H2-receptors [1],less than 0.1 micromole kg^-1
same,IC50,histamine H2-receptors [2],< 1000 nM
